Experimental data reported in paper PMC3227869 (Biochemistry, 2009).

Columns and labels:
Assay type in all cases: biochemical
E. coli QueD = biological target: T1, E. coli QueD (Escherichia coli, UniProt P65870); test: HPLC of product, UV-visible spectra; settings: anaerobic (95% N2:5% H2)
T1 sequence (P65870 1-121): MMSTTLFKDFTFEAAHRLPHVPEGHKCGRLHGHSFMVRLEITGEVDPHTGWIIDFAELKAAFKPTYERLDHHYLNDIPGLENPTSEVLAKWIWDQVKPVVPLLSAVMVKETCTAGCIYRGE

mouse PTPS (mPTPS) = biological target: T2, mouse PTPS (mPTPS) (Mus musculus, UniProt Q9R1Z7); test: HPLC of product, UV-visible spectra; settings: anaerobic; H2NTP generated in situ from GTP by FolE; control reaction
T2 sequence (Q9R1Z7 1-144): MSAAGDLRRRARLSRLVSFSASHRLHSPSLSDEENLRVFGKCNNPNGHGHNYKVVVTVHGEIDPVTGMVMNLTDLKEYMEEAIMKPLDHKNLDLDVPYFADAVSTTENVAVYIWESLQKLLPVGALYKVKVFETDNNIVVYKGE

E. coli GCH I (FolE) = E. coli GCH I (FolE) (Escherichia coli, UniProt P0A6T5); test: HPLC of product; settings: anaerobic
Chain of E. coli GCH I (FolE) (P0A6T5 2-222): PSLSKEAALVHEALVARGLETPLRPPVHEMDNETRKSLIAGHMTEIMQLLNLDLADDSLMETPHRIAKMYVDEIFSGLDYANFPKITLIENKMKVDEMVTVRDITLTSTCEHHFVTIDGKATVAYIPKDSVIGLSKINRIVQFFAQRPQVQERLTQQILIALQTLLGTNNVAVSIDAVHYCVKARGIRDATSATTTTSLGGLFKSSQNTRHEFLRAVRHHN

## C[C@H](O)C(=O)C1=Nc2c(nc(N)[nH]c2=O)NC1 [sepiapterin]
E. coli QueD
  HPLC of product, UV-visible spectra: the same product forms when sepiapterin is the substrate for QueD

## Nc1nc2c(c(=O)[nH]1)N=C([C@H](O)[C@H](O)COP(=O)(O)OP(=O)(O)OP(=O)(O)O)CN2 [H2NTP]
Mouse PTPS (mPTPS)
  HPLC of product, UV-visible spectra: H2NTP was quantitatively converted to PPH4

## Nc1nc2c(ncn2[C@@H]2O[C@H](COP(=O)(O)OP(=O)(O)OP(=O)(O)O)[C@@H](O)[C@H]2O)c(=O)[nH]1 [GTP]
E. coli GCH I (FolE)
  HPLC of product: H2NTP could be produced quantitatively from GTP
